Measured values from article PMC7252619 (PLoS ONE, 2020).
Where “and” joins values, the source holds several entries; their conditions need not be identical. Equal values may be shown once. Read-outs that look alike come from different tables or passages of the source. One block for each compound: values may come before it.

Experiments:
Assay in all cases: Kinase activity test (ReactionBiology), % enzyme activity relative to DMSO
Assay type in all cases: biochemical
NEK2 = target: T1, NEK2 (Homo sapiens, UniProt P51955); conditions: NEK2;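 further: FDA-approved drugs chosen by structure-based repositioning, each screened at 10 or 1 µM for kinase activity, expressed as percent of DMSO controls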
T1 construct: purchased ReactionBiology
T1 sequence (P51955 1-445): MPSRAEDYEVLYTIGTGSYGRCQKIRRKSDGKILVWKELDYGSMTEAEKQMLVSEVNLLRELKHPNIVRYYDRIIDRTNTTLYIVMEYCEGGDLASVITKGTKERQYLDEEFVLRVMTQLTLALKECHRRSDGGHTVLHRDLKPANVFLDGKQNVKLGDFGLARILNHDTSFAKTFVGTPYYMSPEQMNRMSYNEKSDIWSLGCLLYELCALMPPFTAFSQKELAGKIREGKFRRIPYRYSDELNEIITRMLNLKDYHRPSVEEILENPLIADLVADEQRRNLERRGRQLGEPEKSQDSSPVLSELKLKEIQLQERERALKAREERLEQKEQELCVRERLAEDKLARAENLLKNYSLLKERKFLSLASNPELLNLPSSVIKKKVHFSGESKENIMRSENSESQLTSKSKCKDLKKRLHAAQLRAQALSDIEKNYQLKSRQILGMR

DAPK1 = target: T2, DAPK1 (Homo sapiens, UniProt P53355); conditions: for remaining activity at 1 µM / remaining activity at 10 µM: DAPK1
T2 construct: purchased ReactionBiology
T2 sequence (P53355 whole entry): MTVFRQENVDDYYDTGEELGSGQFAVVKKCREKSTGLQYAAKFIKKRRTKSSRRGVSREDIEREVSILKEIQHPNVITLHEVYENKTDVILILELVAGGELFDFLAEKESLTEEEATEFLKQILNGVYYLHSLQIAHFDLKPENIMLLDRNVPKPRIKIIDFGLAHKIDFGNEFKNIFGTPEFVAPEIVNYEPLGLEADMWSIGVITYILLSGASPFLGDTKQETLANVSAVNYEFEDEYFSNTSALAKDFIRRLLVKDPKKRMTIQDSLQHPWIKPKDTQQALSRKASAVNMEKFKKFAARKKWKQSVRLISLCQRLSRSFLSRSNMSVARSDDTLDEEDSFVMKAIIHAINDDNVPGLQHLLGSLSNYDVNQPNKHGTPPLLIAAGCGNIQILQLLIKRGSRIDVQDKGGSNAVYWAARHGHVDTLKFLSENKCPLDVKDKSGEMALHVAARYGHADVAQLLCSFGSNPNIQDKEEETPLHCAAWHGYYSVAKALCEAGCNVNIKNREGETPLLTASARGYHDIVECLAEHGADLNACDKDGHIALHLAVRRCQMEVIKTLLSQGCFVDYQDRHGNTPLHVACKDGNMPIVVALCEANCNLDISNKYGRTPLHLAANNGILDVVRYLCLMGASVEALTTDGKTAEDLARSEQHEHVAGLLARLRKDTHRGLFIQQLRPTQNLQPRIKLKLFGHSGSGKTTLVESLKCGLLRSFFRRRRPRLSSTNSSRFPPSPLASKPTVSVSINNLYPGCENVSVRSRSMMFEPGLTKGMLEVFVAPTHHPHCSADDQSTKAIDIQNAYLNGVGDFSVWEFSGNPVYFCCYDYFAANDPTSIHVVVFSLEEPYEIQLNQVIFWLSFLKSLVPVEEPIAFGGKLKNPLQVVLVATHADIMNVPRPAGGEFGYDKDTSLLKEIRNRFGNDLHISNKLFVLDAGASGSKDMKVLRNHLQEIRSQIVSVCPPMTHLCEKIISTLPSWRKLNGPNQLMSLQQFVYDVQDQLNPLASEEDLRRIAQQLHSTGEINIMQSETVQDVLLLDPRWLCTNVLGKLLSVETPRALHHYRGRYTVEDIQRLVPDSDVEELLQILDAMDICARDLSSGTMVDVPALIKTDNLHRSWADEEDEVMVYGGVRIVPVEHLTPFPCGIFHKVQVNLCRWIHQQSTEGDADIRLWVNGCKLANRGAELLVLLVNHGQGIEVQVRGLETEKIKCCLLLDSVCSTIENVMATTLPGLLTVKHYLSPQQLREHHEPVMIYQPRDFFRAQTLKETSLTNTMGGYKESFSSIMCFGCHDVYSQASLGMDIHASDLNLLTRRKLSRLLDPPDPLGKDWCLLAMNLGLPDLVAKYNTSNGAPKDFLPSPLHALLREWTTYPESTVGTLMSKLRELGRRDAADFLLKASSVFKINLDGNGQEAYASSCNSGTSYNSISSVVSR

CK1d = target: T3, CK1d (Homo sapiens, UniProt P48730); conditions: CK1d
T3 construct: purchased ReactionBiology
T3 sequence (P48730 whole entry): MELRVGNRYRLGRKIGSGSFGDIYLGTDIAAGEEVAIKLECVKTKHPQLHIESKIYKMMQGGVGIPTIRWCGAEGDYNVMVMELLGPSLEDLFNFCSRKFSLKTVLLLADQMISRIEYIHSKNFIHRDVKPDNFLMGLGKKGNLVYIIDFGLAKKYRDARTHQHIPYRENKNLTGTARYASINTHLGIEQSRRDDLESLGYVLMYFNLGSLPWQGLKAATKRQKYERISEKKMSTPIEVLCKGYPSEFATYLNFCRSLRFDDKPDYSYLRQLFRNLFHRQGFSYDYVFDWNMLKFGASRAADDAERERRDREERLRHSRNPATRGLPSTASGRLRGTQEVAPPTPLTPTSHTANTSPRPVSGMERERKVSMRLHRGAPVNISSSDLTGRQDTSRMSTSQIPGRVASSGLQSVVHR

EPHB4 = target: T4, EPHB4 (Homo sapiens, UniProt P54760); conditions: EPHB4;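 further: EPHB4 was one of ten selected kinases in the screening panel, with enzyme activity expressed as a percentage of DMSO controls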
T4 construct: purchased ReactionBiology
T4 sequence (P54760 16-987): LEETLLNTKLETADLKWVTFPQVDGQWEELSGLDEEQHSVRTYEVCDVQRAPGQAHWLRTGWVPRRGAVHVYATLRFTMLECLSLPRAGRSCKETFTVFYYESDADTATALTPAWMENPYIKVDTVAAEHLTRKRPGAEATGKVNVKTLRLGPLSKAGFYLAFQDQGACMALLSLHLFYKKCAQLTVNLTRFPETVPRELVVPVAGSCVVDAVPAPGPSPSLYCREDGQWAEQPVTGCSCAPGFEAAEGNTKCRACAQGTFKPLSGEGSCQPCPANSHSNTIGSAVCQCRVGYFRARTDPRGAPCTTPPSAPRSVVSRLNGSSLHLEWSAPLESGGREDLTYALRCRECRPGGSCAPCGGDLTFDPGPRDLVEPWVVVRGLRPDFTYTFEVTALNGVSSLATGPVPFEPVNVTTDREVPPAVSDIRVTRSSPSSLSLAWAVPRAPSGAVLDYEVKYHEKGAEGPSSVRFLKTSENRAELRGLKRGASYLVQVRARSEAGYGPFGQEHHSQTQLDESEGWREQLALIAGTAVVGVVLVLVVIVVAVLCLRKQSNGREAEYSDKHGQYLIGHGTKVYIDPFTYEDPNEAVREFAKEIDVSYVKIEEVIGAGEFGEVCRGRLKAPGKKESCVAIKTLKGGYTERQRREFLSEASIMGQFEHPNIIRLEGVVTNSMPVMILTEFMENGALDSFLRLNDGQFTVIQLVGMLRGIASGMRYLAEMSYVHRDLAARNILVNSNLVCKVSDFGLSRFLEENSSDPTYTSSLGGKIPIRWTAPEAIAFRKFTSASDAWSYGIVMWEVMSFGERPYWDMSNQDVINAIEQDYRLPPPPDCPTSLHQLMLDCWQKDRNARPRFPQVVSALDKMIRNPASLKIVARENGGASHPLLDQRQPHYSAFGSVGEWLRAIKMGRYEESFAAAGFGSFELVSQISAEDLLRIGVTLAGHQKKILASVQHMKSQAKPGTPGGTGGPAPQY

VEGFR2 = VEGFR2 (Homo sapiens, UniProt P35968); parameters: purchased ReactionBiology; conditions: VEGFR2;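 further: VEGFR2 was one member of a ten-kinase screening panel testing marketed FDA-approved drugs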
Sequence of VEGFR2 (P35968 20-1356): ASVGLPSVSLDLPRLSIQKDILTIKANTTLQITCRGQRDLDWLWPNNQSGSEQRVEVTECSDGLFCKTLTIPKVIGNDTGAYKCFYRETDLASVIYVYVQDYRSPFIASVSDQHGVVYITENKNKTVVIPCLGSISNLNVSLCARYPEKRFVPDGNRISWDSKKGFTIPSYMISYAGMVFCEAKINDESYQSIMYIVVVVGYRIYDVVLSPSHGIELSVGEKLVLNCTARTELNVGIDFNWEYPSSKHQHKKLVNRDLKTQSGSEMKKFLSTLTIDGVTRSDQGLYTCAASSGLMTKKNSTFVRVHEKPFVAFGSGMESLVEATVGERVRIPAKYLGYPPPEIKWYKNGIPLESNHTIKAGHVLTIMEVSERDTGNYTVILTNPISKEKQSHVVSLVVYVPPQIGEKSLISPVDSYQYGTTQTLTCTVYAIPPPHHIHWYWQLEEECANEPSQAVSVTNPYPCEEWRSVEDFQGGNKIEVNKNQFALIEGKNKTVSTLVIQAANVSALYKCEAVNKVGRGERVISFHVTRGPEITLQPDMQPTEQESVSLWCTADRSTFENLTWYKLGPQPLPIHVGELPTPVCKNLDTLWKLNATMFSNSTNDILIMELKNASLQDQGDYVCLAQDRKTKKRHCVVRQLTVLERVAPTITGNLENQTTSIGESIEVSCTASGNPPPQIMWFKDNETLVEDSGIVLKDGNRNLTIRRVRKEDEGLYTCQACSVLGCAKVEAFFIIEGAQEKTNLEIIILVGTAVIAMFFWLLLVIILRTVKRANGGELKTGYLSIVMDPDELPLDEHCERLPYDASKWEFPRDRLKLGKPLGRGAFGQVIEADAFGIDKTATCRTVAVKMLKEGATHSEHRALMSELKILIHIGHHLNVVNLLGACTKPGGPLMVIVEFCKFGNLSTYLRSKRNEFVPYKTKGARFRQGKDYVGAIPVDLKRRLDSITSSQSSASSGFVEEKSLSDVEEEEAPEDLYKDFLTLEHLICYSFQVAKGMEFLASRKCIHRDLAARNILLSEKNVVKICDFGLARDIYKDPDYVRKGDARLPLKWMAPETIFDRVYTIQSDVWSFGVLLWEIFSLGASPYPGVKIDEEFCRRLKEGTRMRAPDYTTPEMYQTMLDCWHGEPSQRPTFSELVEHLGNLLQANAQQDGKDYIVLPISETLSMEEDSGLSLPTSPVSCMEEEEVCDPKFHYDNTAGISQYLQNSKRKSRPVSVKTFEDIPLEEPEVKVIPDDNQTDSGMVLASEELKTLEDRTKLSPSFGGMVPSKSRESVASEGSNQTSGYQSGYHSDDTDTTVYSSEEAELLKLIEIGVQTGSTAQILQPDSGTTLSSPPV

MST-4 = target: T5, MST-4 (Homo sapiens, UniProt Q9P289); conditions: for % Enzyme Activity (relative to DMSO controls), Average / % Enzyme Activity (relative to DMSO controls), Data 1 / % Enzyme Activity (relative to DMSO controls), Data 2: MST4; for % Enzyme Activity (relative to DMSO controls), Data 1: replicate Data 1; for % Enzyme Activity (relative to DMSO controls), Data 2: replicate Data 2;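 on all read-outs here: marketed FDA-approved drugs screened at 10 µM and 1 µM against a ten-kinase panel, remaining activity given as percent of DMSO controls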
T5 construct: purchased ReactionBiology
T5 sequence (Q9P289 whole entry): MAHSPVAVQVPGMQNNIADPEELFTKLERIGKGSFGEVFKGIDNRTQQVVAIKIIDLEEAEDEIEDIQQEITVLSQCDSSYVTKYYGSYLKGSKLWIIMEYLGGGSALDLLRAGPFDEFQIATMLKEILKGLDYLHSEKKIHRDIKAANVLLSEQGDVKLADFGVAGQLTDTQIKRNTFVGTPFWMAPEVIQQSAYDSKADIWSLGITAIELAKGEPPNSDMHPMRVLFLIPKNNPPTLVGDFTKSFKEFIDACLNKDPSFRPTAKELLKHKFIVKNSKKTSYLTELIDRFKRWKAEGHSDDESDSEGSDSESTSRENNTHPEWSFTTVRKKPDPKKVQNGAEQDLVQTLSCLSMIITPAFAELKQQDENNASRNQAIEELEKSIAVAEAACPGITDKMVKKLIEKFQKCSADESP

[1] = 1 uM, Average, read-out: % Enzyme Activity (relative to DMSO controls), Average
[2] = 1 uM, replicate Data 1, read-out: % Enzyme Activity (relative to DMSO controls), Data 1
[3] = 1 uM, replicate Data 2, read-out: % Enzyme Activity (relative to DMSO controls), Data 2
[4] = 10 uM, Average, read-out: % Enzyme Activity (relative to DMSO controls), Average
[5] = 10 uM, replicate Data 1, read-out: % Enzyme Activity (relative to DMSO controls), Data 1
[6] = 10 uM, replicate Data 2, read-out: % Enzyme Activity (relative to DMSO controls), Data 2
[7] = read-out: % Enzyme Activity (relative to DMSO controls), Average
[8] = read-out: % Enzyme Activity (relative to DMSO controls), Data 1
[9] = read-out: % Enzyme Activity (relative to DMSO controls), Data 2

remaining activity at 1 µM (NEK2; [1]): 116%
remaining activity at 1 µM (NEK2; [2]): 118%
remaining activity at 1 µM (NEK2; [3]): 115%
remaining activity at 10 µM (NEK2; [4]): 88.7%
remaining activity at 10 µM (NEK2; [5]): 98.3%
remaining activity at 10 µM (NEK2; [6]): 79.2%
remaining activity at 1 µM (DAPK1; [1]): 90.4%
remaining activity at 1 µM (DAPK1; [2]): 87.6%
remaining activity at 1 µM (DAPK1; [3]): 93.2%
remaining activity at 10 µM (DAPK1; [4]): 49.9%
remaining activity at 10 µM (DAPK1; [5]): 47.2%
remaining activity at 10 µM (DAPK1; [6]): 52.5%
remaining activity at 1 µM (DAPK1; compound 1μM, relative to DMSO controls, read-out: % Enzyme activity at 1μM): 90.4%
remaining activity at 10 µM (DAPK1; compound 10μM, relative to DMSO controls, read-out: % Enzyme activity at 10μM): 49.9%
remaining activity at 1 µM (CK1d; [1]): 107%
remaining activity at 1 µM (CK1d; [2]): 111%
remaining activity at 1 µM (CK1d; [3]): 102%
remaining activity at 10 µM (CK1d; Average, read-out: % Enzyme Activity (relative to DMSO controls), Average): 109%
remaining activity at 10 µM (CK1d; replicate Data 1, read-out: % Enzyme Activity (relative to DMSO controls), Data 1): 113%
remaining activity at 10 µM (CK1d; replicate Data 2, read-out: % Enzyme Activity (relative to DMSO controls), Data 2): 105%
remaining activity at 1 µM (EPHB4; [1]): 92.6%
remaining activity at 1 µM (EPHB4; [2]): 95.6%
remaining activity at 1 µM (EPHB4; [3]): 89.7%
remaining activity at 10 µM (EPHB4; [4]): 87.3%
remaining activity at 10 µM (EPHB4; [5]): 89%
remaining activity at 10 µM (EPHB4; [6]): 85.7%
remaining activity at 1 µM (VEGFR2; [1]): 104%
remaining activity at 1 µM (VEGFR2; [2]): 106%
remaining activity at 1 µM (VEGFR2; [3]): 103%
remaining activity at 10 µM (VEGFR2; [4]): 99%
remaining activity at 10 µM (VEGFR2; [5]): 103%
remaining activity at 10 µM (VEGFR2; [6]): 95%
Compound: Cc1cccc(C)c1OCC(=O)N[C@@H](Cc1ccccc1)[C@@H](O)C[C@H](Cc1ccccc1)NC(=O)[C@H](C(C)C)N1CCCNC1=O [Lopinavir, reference compound]

% Enzyme Activity (relative to DMSO controls), Average (MST-4; 1 uM): 61.30%
% Enzyme Activity (relative to DMSO controls), Data 1 (MST-4; 1 uM): 64.87%
% Enzyme Activity (relative to DMSO controls), Data 2 (MST-4; 1 uM): 57.73%
% Enzyme Activity (relative to DMSO controls), Average (MST-4; 10 uM): 101.79%
% Enzyme Activity (relative to DMSO controls), Data 1 (MST-4; 10 uM): 93.77%
% Enzyme Activity (relative to DMSO controls), Data 2 (MST-4; 10 uM): 109.8%
Compound: O=C(CCCCCCC(=O)Nc1ccccc1)NO [Vorinostat]

% Enzyme Activity (relative to DMSO controls), Data 1 (NEK2; 1 uM, replicate Data 1): 110.94%
% Enzyme Activity (relative to DMSO controls), Data 1 (NEK2; 10 uM, replicate Data 1): 81.38%
% Enzyme Activity (relative to DMSO controls), Data 1 (CK1d; 1 uM, replicate Data 1): 101.66%
% Enzyme Activity (relative to DMSO controls), Data 1 (EPHB4; 1 uM, replicate Data 1): 93.6%
% Enzyme Activity (relative to DMSO controls), Data 1 (EPHB4; 10 uM, replicate Data 1): 93.32%
% Enzyme Activity (relative to DMSO controls), Data 1 (VEGFR2; 1 uM, replicate Data 1): 102.21%
% Enzyme Activity (relative to DMSO controls), Data 1 (VEGFR2; 10 uM, replicate Data 1): 95.58%
Compound: O=C1Nc2ccc(Cl)cc2[C@@](C#CC2CC2)(C(F)(F)F)O1 [Efavirenz]

Further lines, the compound ahead of its results:

Compound: Oc1ccc(O)cc1 [Hydroquinone]
% Enzyme Activity (relative to DMSO controls), Average (DAPK1): 106.84% and 99.20%
% Enzyme Activity (relative to DMSO controls), Data 1 (DAPK1): 112.42% and 95.43%
% Enzyme Activity (relative to DMSO controls), Data 2 (DAPK1): 101.25% and 102.97%
% Enzyme Activity (relative to DMSO controls), Average (MST-4; 1 uM): 86.76%
% Enzyme Activity (relative to DMSO controls), Data 1 (MST-4; 1 uM): 90.83%
% Enzyme Activity (relative to DMSO controls), Data 2 (MST-4; 1 uM): 82.69%
% Enzyme Activity (relative to DMSO controls), Average (MST-4; 10 uM): 89.91%
% Enzyme Activity (relative to DMSO controls), Data 1 (MST-4; 10 uM): 90.73%
% Enzyme Activity (relative to DMSO controls), Data 2 (MST-4; 10 uM): 89.08%
% Enzyme Activity (relative to DMSO controls), Average (VEGFR2; 1 uM, Average): 108.33%
% Enzyme Activity (relative to DMSO controls), Data 1 (VEGFR2; 1 uM, replicate Data 1): 107.95%
% Enzyme Activity (relative to DMSO controls), Data 2 (VEGFR2; 1 uM, replicate Data 2): 108.7%
% Enzyme Activity (relative to DMSO controls), Average (VEGFR2; 10 uM, Average): 108.92%
% Enzyme Activity (relative to DMSO controls), Data 1 (VEGFR2; 10 uM, replicate Data 1): 109.26%
% Enzyme Activity (relative to DMSO controls), Data 2 (VEGFR2; 10 uM, replicate Data 2): 108.57%

Compound: O=P(O)(O)C(O)(Cc1cnc2ccccn12)P(=O)(O)O [Minodronic acid]
remaining activity at 1 µM (MST-4; [7]): 95.6%
remaining activity at 10 µM (MST-4; [7]): 81.5%
remaining activity at 1 µM (MST-4; [8]): 84.5%
remaining activity at 10 µM (MST-4; [8]): 83.7%
remaining activity at 1 µM (MST-4; [9]): 107%
remaining activity at 10 µM (MST-4; [9]): 79.3%

Compound: C[C@H](O)[C@H](O)[C@H]1CNc2nc(N)[nH]c(=O)c2N1 [Sapropterin]
% Enzyme Activity (relative to DMSO controls), Average (NEK2; 1 uM, Average): 93.31%
% Enzyme Activity (relative to DMSO controls), Data 1 (NEK2; 1 uM, replicate Data 1): 92.46%
% Enzyme Activity (relative to DMSO controls), Data 2 (NEK2; 1 uM, replicate Data 2): 94.15%
% Enzyme Activity (relative to DMSO controls), Average (NEK2; 10 uM, Average): 93.52%
% Enzyme Activity (relative to DMSO controls), Data 1 (NEK2; 10 uM, replicate Data 1): 92.39%
% Enzyme Activity (relative to DMSO controls), Data 2 (NEK2; 10 uM, replicate Data 2): 94.64%
% Enzyme Activity (relative to DMSO controls), Average (MST-4; 1 uM): 87.71%
% Enzyme Activity (relative to DMSO controls), Data 1 (MST-4; 1 uM): 88.88%
% Enzyme Activity (relative to DMSO controls), Data 2 (MST-4; 1 uM): 86.54%
% Enzyme Activity (relative to DMSO controls), Average (MST-4; 10 uM): 87.19%
% Enzyme Activity (relative to DMSO controls), Data 1 (MST-4; 10 uM): 96.6%
% Enzyme Activity (relative to DMSO controls), Data 2 (MST-4; 10 uM): 77.78%
% Enzyme Activity (relative to DMSO controls), Average (VEGFR2; 1 uM, Average): 98.99%
% Enzyme Activity (relative to DMSO controls), Data 1 (VEGFR2; 1 uM, replicate Data 1): 101.37%
% Enzyme Activity (relative to DMSO controls), Data 2 (VEGFR2; 1 uM, replicate Data 2): 96.61%
% Enzyme Activity (relative to DMSO controls), Average (VEGFR2; 10 uM, Average): 98.14%
% Enzyme Activity (relative to DMSO controls), Data 1 (VEGFR2; 10 uM, replicate Data 1): 98.48%
% Enzyme Activity (relative to DMSO controls), Data 2 (VEGFR2; 10 uM, replicate Data 2): 97.79%
